Source: patent publication US8372594B2, “Secreted phospholipase A2 biomarkers for arthritis” (Case Western Reserve University, priority 2009, dated 2013)

Legend:
[1] = molecular target: T1, sPLA2-IIA (Homo sapiens, UniProt P14555); test: inhibition of sPLA2-IIA activity; type: biochemical; conditions: finding of the present invention
T1 sequence (P14555 21-144): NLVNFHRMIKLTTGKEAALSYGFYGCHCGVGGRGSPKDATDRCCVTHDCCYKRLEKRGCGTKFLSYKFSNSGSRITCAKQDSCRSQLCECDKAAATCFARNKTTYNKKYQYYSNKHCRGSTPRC

[2] = tested on: several sPLA2 isoforms; test: inhibition of several sPLA2 isoforms; type: biochemical

Row | SMILES | preferential inhibition of sPLA2-IIA [1] | inhibition of the activity of several sPLA2 isoforms [2]
1 | CCc1c(C(=O)C(N)=O)c2c(OCC(=O)O)cccc2n1Cc1ccccc1 [Compound B] | preferentially inhibit sPLA2-IIA | –
2 | CCc1c(C(=O)C(N)=O)c2c(OC)cc3ccccc3c2n1Cc1ccccc1 [R0032107A] | preferentially inhibit sPLA2-IIA | –
3 | CCc1c(C(=O)C(N)=O)c2c(OCC(=O)O)cc3ccccc3c2n1Cc1ccccc1 [R0050907A] | – | inhibits the activity of several sPLA2 isoforms
